According to US20120202794A1 (priority 2011, published 2012):

Key:
[1] = Cell cytotoxicity assay (MTS), CC90 as reported in Table 1, cell line not stated; format: cell-based; details: human, cell line not given
In short: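 MTS read-out (490 nm, 2 h dye step) after 8-day exposure at 37° C. Huh7, HepG2, BxPC3 were seeded at 2×10^3 and CEM at 5×10^3 cells/well, with compound serially diluted from 100 μM. CC90 comes from comparison with untreated control wells.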

HCV Replicon 1b = experiment: HCV inhibition assay, HCV replicon 1b (Clone A or ET-lunet cells; RT-PCR or luciferase reporter); format: cell-based; details: Hepatitis C virus, 96 h, HCV replicon 1b; 4 days incubation; read-out: Replicon 1b potency EC90
In short: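 Inhibition read either as luciferase signal (ET replicon) or as HCV 5′-NTR RNA by RT-PCR relative to rRNA, % = (1−2^−ΔΔCt)×100, against DMSO controls, giving EC50 and EC90. Cells: Clone A or ET-lunet, seeded 1500 or 3000/well, exposed 4 days at 37 °C, 5% CO2, 0.5% DMSO.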

Structure (SMILES)	CC90 at 8 days [1] [µM]	EC90 (HCV Replicon 1b) [µM]	CC90 at 8 days ([1]; MTS assay, 8 days incubation) [µM]
CC(C)C[C@H]1C(=O)N[C@@H](C2CCCCC2)CN1C(=O)[C@@H]1C[C@H]1c1ccc(Cl)cc1 [Compound 245, (3S,6S)-4-[(1R,2R)-2-(4-Chloro-phenyl)-cyclopropanecarbonyl]-6-cyclohexyl-3-isobutyl-piperazin-2-one]	> 10	0.62	–
CC(C)C[C@H]1C(=O)N[C@@H](C2CCCC2)CN1C(=O)[C@@H]1C[C@H]1c1ccc(Cl)cc1 [Compound 246, (3S,6S)-4-[(1R,2R)-2-(4-Chloro-phenyl)-cyclopropanecarbonyl]-6-cyclopentyl-3-isobutyl-piperazin-2-one]	> 10	0.2	–
CC(C)C[C@H]1C(=O)N[C@@H](c2ccccc2)CN1C(=O)[C@@H]1C[C@H]1c1ccc(F)cc1 [Compound 247, (3S,6S)-4-[(1R,2R)-2-(4-Fluoro-phenyl)-cyclopropanecarbonyl]-3-isobutyl-6-phenyl-piperazin-2-one]	> 10	0.05	–
CC(C)C[C@H]1C(=O)N[C@@H](c2ccccc2)CN1C(=O)[C@@H]1C[C@H]1c1ccc(Cl)cc1 [Compound 248, (3S,6S)-4-[(1R,2R)-2-(4-Chloro-phenyl)-cyclopropanecarbonyl]-3-isobutyl-6-phenyl-piperazin-2-one]	> 10	0.16	–
CC(C)C[C@H]1CN(C(=O)[C@@H]2C[C@H]2c2ccc(C(C)(C)C)cc2)[C@@H](CC(C)C)C(=O)N1 [Compound 249, (3S,6S)-4-[(1R,2R)-2-(4-tert-Butyl-phenyl)-cyclopropanecarbonyl]-3,6-diisobutyl-piperazin-2-one]	> 10	0.75	–
CC(C)C[C@H]1CN(C(=O)[C@@H]2C[C@H]2c2ccc(Cl)cc2F)[C@@H](CC(C)C)C(=O)N1 [Compound 250, (3S,6S)-4-[(1R,2R)-2-(4-Chloro-2-fluoro-phenyl)-cyclopropanecarbonyl]-3,6-diisobutyl-piperazin-2-one]	> 10	0.36	–
CCC[C@H]1CN(C(=O)[C@@H]2C[C@H]2c2ccc(Cl)cc2F)[C@@H](CC(C)C)C(=O)N1 [Compound 251]	> 10	0.2	–
CC(C)C[C@H]1C(=O)N[C@@H](C2CCCCC2)CN1C(=O)[C@@H]1C[C@H]1c1ccc(Cl)cc1F [Compound 252]	> 10	0.67	–
CC(C)C[C@H]1C(=O)N[C@@H](C2CCCC2)CN1C(=O)[C@@H]1C[C@H]1c1ccc(Cl)cc1F [Compound 253, (3S,6S)-4-[(1R,2R)-2-(4-Chloro-2-fluoro-phenyl)-cyclopropanecarbonyl]-6-cyclopentyl-3-isobutyl-piperazin-2-one]	> 10	0.5	–
CC(C)C[C@H]1C(=O)N[C@@H](C(C)C)CN1C(=O)[C@@H]1C[C@H]1c1ccc(Cl)cc1F [Compound 254, (3S,6S)-4-[(1R,2R)-2-(4-Chloro-2-fluoro-phenyl)-cyclopropanecarbonyl]-3-isobutyl-6-isopropyl-piperazin-2-one]	> 10	0.66	–
CC(C)C[C@H]1C(=O)N[C@@H](c2ccccc2)CN1C(=O)[C@@H]1C[C@H]1c1ccc(Cl)cc1F [Compound 255, (3S,6S)-4-[(1R,2R)-2-(4-Chloro-2-fluoro-phenyl)-cyclopropanecarbonyl]-3-isobutyl-6-phenyl-piperazin-2-one]	> 10	0.36	–
CC(C)C[C@H]1CN(C(=O)[C@@H]2C[C@H]2c2ccc(F)cc2F)[C@@H](CC(C)C)C(=O)N1 [Compound 256, (3S,6S)-4-[(1R,2R)-2-(2,4-Difluoro-phenyl)-cyclopropanecarbonyl]-3,6-diisobutyl-piperazin-2-one]	> 10	0.22	–
CCC[C@H]1CN(C(=O)[C@@H]2C[C@H]2c2ccc(F)c(F)c2)[C@@H](CC(C)C)C(=O)N1 [Compound 257, (3S,6S)-4-[(1R,2R)-2-(3,4-Difluoro-phenyl)-cyclopropanecarbonyl]-3-isobutyl-6-propyl-piperazin-2-one]	> 10	0.59	–
CC(C)C[C@H]1C(=O)N[C@@H](C2CCCCC2)CN1C(=O)[C@@H]1C[C@H]1c1ccc(F)c(F)c1 [Compound 258, (3S,6S)-6-Cyclohexyl-4-[(1R,2R)-2-(3,4-difluoro-phenyl)-cyclopropanecarbonyl]-3-isobutyl-piperazin-2-one]	> 10	0.56	–
CC(C)C[C@H]1C(=O)N[C@@H](C2CCCC2)CN1C(=O)[C@@H]1C[C@H]1c1ccc(F)c(F)c1 [Compound 259, (3S,6S)-6-Cyclopentyl-4-[(1R,2R)-2-(3,4-difluoro-phenyl)-cyclopropanecarbonyl]-3-isobutyl-piperazin-2-one]	> 10	0.59	–
CC(C)C[C@H]1C(=O)N[C@@H](c2ccccc2)CN1C(=O)[C@@H]1C[C@H]1c1ccc(F)c(F)c1 [Compound 260, (3S,6S)-4-[(1R,2R)-2-(3,4-Difluoro-phenyl)-cyclopropanecarbonyl]-3-isobutyl-6-phenyl-piperazin-2-one]	> 10	0.23	–
CC(C)C[C@H]1CN(C(=O)/C=C/c2ccc(N(C)C)cc2)[C@@H](CC(C)C)C(=O)N1 [Compound 261, (3S,6S)-4-((E)-3-(4-(dimethylamino)phenyl)acryloyl)-3,6-diisobutylpiperazin-2-one]	–	> 10	> 10
CC(C)C[C@H]1CN(C(=O)C#Cc2cccnc2)[C@@H](CC(C)C)C(=O)N1 [Compound 262, (3S,6S)-3,6-diisobutyl-4-(3-(pyridin-3-yl)propioloyl)piperazin-2-one]	–	> 10	> 10
COc1ccc(/C=C/C(=O)N2C[C@H](CC(C)C)NC(=O)[C@@H]2CC(C)C)cc1 [Compound 263, (3S,6S)-3,6-diisobutyl-4-((E)-3-(4-methoxyphenyl)acryloyl)piperazin-2-one]	–	8.7	> 10
CC(C)C[C@H]1CN(C(=O)/C=C/c2cccc(Cl)c2)[C@@H](CC(C)C)C(=O)N1 [Compound 264, (3S,6S)-4-[3-(3-chlorophenyl)-acryloyl]-3,6-diisobutyl-piperazin-2-one]	–	8.1	> 10
CC(C)C[C@H]1CN(C(=O)/C=C/c2ccccc2Cl)[C@@H](CC(C)C)C(=O)N1 [Compound 265, (3S,6S)-4-[3-(2-chlorophenyl)-acryloyl]-3,6-diisobutyl-piperazin-2-one]	–	9.75	> 10
CC(C)C[C@H]1CN(C(=O)/C=C/c2ccccc2F)[C@@H](CC(C)C)C(=O)N1 [Compound 266]	–	7.93	> 10
CC(C)C[C@H]1CN(C(=O)/C=C/c2ccc(Cl)cc2Cl)[C@@H](CC(C)C)C(=O)N1 [Compound 267, (3S,6S)-4-[3-(2,4-dichloro-phenyl)-acryloyl]-3,6-diisobutyl-piperazin-2-one]	–	6.89	> 10
CSc1ccc(/C=C/C(=O)N2C[C@H](CC(C)C)NC(=O)[C@@H]2CC(C)C)cc1 [Compound 268, (3S,6S)-3,6-diisobutyl-4-((E)-3-(4-methylsulfanyl-phenyl)acryloyl)piperazin-2-one]	–	9.8	> 10
CC(C)C[C@H]1CN(C(=O)/C=C/c2ccc(C(C)(C)C)cc2)[C@@H](CC(C)C)C(=O)N1 [Compound 269, (3S,6S)-3,6-diisobutyl-4-((E)-3-(4-tert-butyl-phenyl)acryloyl)piperazin-2-one]	–	8.9	> 10
